# Measurements as given in patent publication US20050175597A1 (priority 2002, published 2005).
# How the values were obtained:
# [1] = test system: Lactobacillus casei shirota; assay: Lactobacillus casei shirota viable plate counts after SGF treatment with or without colostrum; settings: L. casei shirota, no colostrum
# [2] = test system: Lactobacillus plantarum; parameters: species or system mice; settings: mouse, in vivo
# [3] = test system: Lactobacillus plantarum
compound,measurement,setting,value
Lactobacillus casei shirota [Lactobacillus + H2O],reduction in Lactobacillus viability,[1],"≥ 10,000 fold"
"O=C([O-])O.[Na+] [sodium bicarbonate, Sodium bicarbonate]","survival of Lactobacillus plantarum (large intestine, FIG. 7)",[2],increased
same,survival of Lactobacillus plantarum at higher concentrations of protectant,[2],increased survival
Lactobacillus plantarum [Lactobacillus + H2O],reduction in Lactobacillus viability,[3],1000 fold
